B1: FLG2-AbD: recombinant filaggrin-2, amino acids 81-212 of Q5D862, fused N-terminally to thioredoxin-His-S.Tag; inactive form (protein, UniProt Q5D862 81-212, looked up, fragment)
chain: LTMACNKVLSKEYCKASGSKKHRRGHRHQEEESETEEDEEDTPGHKSGYRHSSWSEGEEHGYSSGHSRGTVKCRHGSNSRRLGRQGNLSSSGNQEGSQKRYHRSSCGHSWSGGKDRHGSSSVELRERINKSH
modifications: N-terminal thioredoxin-His-S.Tag fusion
B2: FLG2-Hs: recombinant filaggrin-2, amino acids 2-213 of Q5D862, fused N-terminally to thioredoxin-His-S.Tag; active form (protein, UniProt Q5D862 2-213, looked up, fragment)
chain: TDLLRSVVTVIDVFYKYTKQDGECGTLSKGELKELLEKELHPVLKNPDDPDTVDVIMHMLDRDHDRRLDFTEFLLMIFKLTMACNKVLSKEYCKASGSKKHRRGHRHQEEESETEEDEEDTPGHKSGYRHSSWSEGEEHGYSSGHSRGTVKCRHGSNSRRLGRQGNLSSSGNQEGSQKRYHRSSCGHSWSGGKDRHGSSSVELRERINKSHI
modifications: N-terminal thioredoxin-His-S.Tag fusion

Tests used:
[1] = biological target: T1, SASPase-FLG2 interaction (Homo sapiens, UniProt Q53RT3, D212A); assay: HTRF (FRET) screening of agents that modulate the SASPase-FLG2 interaction; format: binding; conditions: SASPase85-343D212A-GST 50 nM, FLG22-213-S-His-THX 200 nM, PBS pH 7.4; read-out: IC50, inhibition of the SASPase-FLG2 interaction
T1 construct: made in house; host or cells: E. coli BL21DE3
T1 sequence (Q53RT3 85-343 D212A): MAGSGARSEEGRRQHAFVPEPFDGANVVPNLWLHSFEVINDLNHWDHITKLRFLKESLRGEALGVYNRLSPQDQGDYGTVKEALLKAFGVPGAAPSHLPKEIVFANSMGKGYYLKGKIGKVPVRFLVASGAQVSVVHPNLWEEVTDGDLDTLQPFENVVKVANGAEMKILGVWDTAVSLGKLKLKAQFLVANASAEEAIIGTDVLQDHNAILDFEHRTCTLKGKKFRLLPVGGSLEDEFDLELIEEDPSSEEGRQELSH
Experimental: The process developed is based on the FLG2-SASPase interaction and uses the homogeneous time-resolved fluorescence (or HTRF) technique.
A recombinant SASPase protein (comprising the amino acid sequence 85-343 of Q53RT3) mutated at its active site (D212A of Q53RT3) and fused with the GST (glutathione S-transferase from Schistosoma japonicum) affinity marker, at its C-terminal end, was prepared in the vector pGEX-4-T3 (GenBank U13855) (SASPase85-343D212A-GST). The D212A mutation was introduced to inactivate the SASPase and to promote a stable interaction with FLG2. […]
Antibodies recognizing, respectively, the affinity markers GST or His-S.Tag, and bearing, respectively, an EuK fluorescence donor group (europium cryptate λex 337 nm/λem 620 nm) or an XL1665 fluorescence receiver group (λex 570-630 nm/λem 665 nm) are used to monitor the peptide-SASPase interaction.
The SASPase-FLG2 interaction was observed by fluorescence energy transfer (FRET) between the fluorescent markers Euk and XL1665. The Euk fluorescence donor was excited at λex 337 nm and the fluorescence emission of the XL1665 fluorescence acceptor was measured at λem 665 nm.
The Euk fluorescence emission at λem 620 nm, taking place independently of the interaction between SASPase and FLG2, was used to normalize the signal. Thus, for each point, a ratio λem 665/λem 620 is determined. […]

[2] = test system: reconstructed human epidermis Episkin J6; assay: Stratum corneum thickness by histological observation on slices of Episkin reconstructed epidermis; format: cell-based; conditions: tested at 10 μM, 1 μM and 0.5 μM; observed at and above the lowest concentration tested
Experimental: (§1) A model of reconstructed human epidermis Episkin J6 (reference 09-EPIS-015) was cultured by immersion in Episkin differentiation medium, 3.5 ml under insert in an oven at 37° C., 5% CO2, the medium being changed every 2 days.
(§2) The compound “M7” was tested at concentrations of 10 μM, 1 μM and 0.5 μM by incubation of the epidermal model with a differentiation culture medium supplied by EpiSkin®, comprising the compound at the test concentration or a buffer solution as control (DMSO at 0.1% final).
(§3) The effect of the compound “M7” on the differentiation and/or proliferation of epidermal cells is evaluated by measuring the thickness of the stratum corneum, and measurement of the expression and/or activation of transglutaminase I (TGI), caspase 14, SASPase, corneodesmosin, desmoglein 1 or protein Ki67.
The thickness of the stratum corneum was estimated by histological observation on slices.

[3] = test system: reconstructed human epidermis Episkin J6; assay: Western blotting of differentiation markers in Episkin reconstructed epidermis; format: cell-based; conditions: Episkin epidermis cultured in the presence of M7 (10 μM, 1 μM, 0.5 μM)
Experimental: as §1, §2, §3
The activation, expression and maturation of TGI, filaggrin, caspase 14, SASPase, corneodesmosin and desmoglein 1 were determined by western blotting.
For the western blotting, the soluble proteins, TGI, caspase 14, corneodesmosin and SASPase were extracted from two Episkin® nacelles with a manual potter in 1 ml of “native +” buffer (TBS, 1M NaCl, 0.1% Tween 20). The extract is centrifuged at 14 000 rpm, at 4° C. for 10 minutes. The supernatant obtained is filtered through a 0.45 μm Millipore filter (millex) and the proteins are then quantified by the BCA method (Pierce). The protein concentrations are equilibrated to 625 μg/ml final.
The extracts are deposited on a 10-20% Criterion gel (ref.: 345-0044 Bio-Rad) according to the supplier's protocol, and are then transferred onto a PVDF membrane via the semi-dry method.
The western blotting immunochemical detection is performed according to a standard protocol carried out with primary antibodies specific for the target and secondary antibodies coupled to HRP. Revelation is performed with the kits ECL; ECL plus; ECL advanced (Amersham) according to the necessary sensitivity and according to the supplier's protocol. The photon imaging apparatus used is the Fluor S Multilmager (Bio-Rad).
For TGI, primary antibody: Covalab pab 0061 at 1/100 produced in rabbits; secondary antibody: HRP-coupled anti-rabbit antibody at 1/4000: Bio-rad 170-6515
For caspase 14, primary antibody: Santa Cruz sc-5628 at 1/500 produced in rabbits; secondary antibody: HRP-coupled anti-rabbit antibody at 1/400: Bio-rad 170-6515
For corneodesmosin, primary antibody: Abnova 1041-M01 at 1/5000 produced in mice; secondary antibody: HRP-coupled anti-mouse antibody at 1/4000: Bio-rad 170-6516
For SASPase, primary antibody: Covalab 7H9a105 at 1/2000 produced in mice; secondary antibody: HRP-coupled anti-mouse antibody at 1/4000: Bio-rad 170-6516
For the western blotting of filaggrin and desmoglein 1, these proteins are extracted from the pellet obtained during the extraction of the “soluble” proteins. The pellets are ground with an electric potter in 200 μl of whole Laemmli buffer ([…] Tris; 2% SDS; 200 mM DTT; 10% glycerol) and then heated at 90° C. for 10 minutes and finally centrifuged for 10 minutes at 14 000 rpm at room temperature.
The supernatants obtained are assayed for proteins via the Bradford method (cytoskeleton). The total protein concentrations are equilibrated to 1 mg/ml final. A western blotting protocol identical to the previous one is applied.
For desmoglein 1, primary antibody: Progen 61002 at 1/100 produced in mice; secondary antibody: HRP-coupled anti-mouse antibody at 1/4000: Bio-rad 170-6516

[4] = test system: reconstructed human epidermis Episkin J6; assay: Ki67 immunofluorescence on frozen slices of Episkin reconstructed epidermis; format: cell-based; conditions: Episkin epidermis cultured in the presence of M7 (10 μM, 1 μM, 0.5 μM)
Experimental: as §1, §2, §3
The activation, expression and maturation of Ki67 were determined by immunofluorescence on frozen slices.
The immunofluorescence labeling on frozen slices is performed using a standard protocol, with a PBS buffer; 0.2% BSA for the steps of washing and incubation of the primary and secondary antibodies, and with a PBS buffer; 5% BSA for the step for blocking the nonspecific sites.
For the detection of Ki67, primary antibody: Novocastra mm1 at 1/20 produced in mice; secondary antibody: AlexaFLuor A488-coupled anti-mouse antibody at 1/1000 (Molecular Probes A11017). […]

[5] = biological target: T2, recombinant SASPase (28 kDa) (Homo sapiens, UniProt Q53RT3); assay: Enzymatic activation of SASPase by FLG2 (hydrolysis of fluorescent substrate Dabcyl-QIDRIMEK-Edans); format: biochemical; conditions: for enzymatic activity of the SASPase: increasing concentration of FLG2 form (0.01 to 10 times SASPase 0.025 mg/ml), acetate/acetic acid buffer pH 5.5, 37° C.
T2 construct: made in house
T2 sequence (Q53RT3 85-343): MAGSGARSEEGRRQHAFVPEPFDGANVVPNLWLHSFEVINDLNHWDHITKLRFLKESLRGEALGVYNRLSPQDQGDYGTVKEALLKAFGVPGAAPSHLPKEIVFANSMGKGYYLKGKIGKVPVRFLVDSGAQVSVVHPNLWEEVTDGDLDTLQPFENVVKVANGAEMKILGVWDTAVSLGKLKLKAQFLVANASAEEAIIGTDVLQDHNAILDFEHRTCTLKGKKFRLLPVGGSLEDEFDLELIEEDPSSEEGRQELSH
Experimental: The enzymatic reaction is performed in an acetate/acetic acid buffer. The FIGURE illustrates the mean±sem of an experiment performed in duplicate.
A 28-kDa recombinant SASPase corresponding to the amino acid sequence 85 to 343 of the sequence Q53RT3 (Uniprot/Swissprot ref.) was prepared as described by Bernard et al. (J. Invest. Dermatol., 2005, 125: 278-287) (SASPase85-343).
The SASPase was dissolved in a PBS buffer and used at a final concentration of 0.025 mg/ml in the presence of a final concentration of a colorimetric substrate Dabcyl-QIDRIMEK-Edans of 0.01 mM (Production Jerini Peptide Ref. D17: JPT Peptide Technologies GmbH).
FLG2-Hs and FLG2-AbD are used at concentrations corresponding to 0.01, 0.02, 0.04, 0.08, 0.16, 0.31, 0.63, 1.25, 2.5, 5 or 10 times the final concentration of SASPase, i.e. 0.025 mg/ml.
SASPase and FLG2-Hs, or FLG2-AbD, are incubated at 37° C. in a 0.1 M acetate/acetic acid buffer at pH 5.5 containing 150 mM of NaCl, in the presence of Dabcyl-QIDRIMEK-Edans.
The hydrolysis of the colorimetric substrate by the activated SASPase leads to the separation of the Edans fluorochrome and of its Dabcyl deactivator (or quencher), and to an increase in the fluorescence of Edans.
Measurement of the fluorescent signal is performed at λex 340 nm/[…]. The fluorescence is read every 10 minutes for 1 hour 30 minutes at 37° C., with a Spectramax M5e (Molecular Devices).

Molecule | IC50 [1] | thickness of the stratum corneum [2] | expression and activation of SASPase [3] | expression and activation of TGI (transglutaminase I) [3] | expression and activation of caspase 14 [3] | expression and activation of corneodesmosin [3] | expression and activation of desmoglein [3] | activation and expression of the protein Ki67 [4] | enzymatic activity of the SASPase [5] | FLG2 concentration at and above which activation of SASPase proteolytic activity is obtained ([5]; SASPase 0.025 mg/ml)
Cc1ccc(C(=O)Oc2cccc(C3C4=C(Nc5c3c(=O)n(C)c(=O)n5C)c3ccccc3C4=O)c2)cc1 (centres unmarked) [M7] | ~2000 nM | thickening | increase | increase | increase | increase | increase | decrease |  | 
B1 |  |  |  |  |  |  |  |  | virtually unchanged | 
B2 |  |  |  |  |  |  |  |  | significantly increased | equivalent to that of the SASPase

Source: patent US9869681B2, “Process for treating an individual with an esthetic defect of skin by modulating SASPase FLG2 complex” (L'OREAL, priority 2010, dated 2018)
